From EP4799647A1, “CAMPTOTHECIN DRUG CONJUGATE, AND PREPARATION METHOD THEREFOR AND USE THEREOF” (Shanghai Qilu Pharmaceutical Research and Development …, priority 2023, dated 2025)

Columns and labels:
Experiment in all cases: Cell inhibitory activity experiment (CellTiter-Glo, 72 hours)
Assay type in all cases: cell-based
[1] = tested on: COLO320DM; details: Homo sapiens, COLO 320DM
Protocol: (§1) • a) All cell lines were cultured in complete medium at 37 °C under 5% CO2. • b) Cells in logarithmic growth phase were collected and counted by a […]. The cell viability was detected by trypan blue exclusion method, and guaranteed to be over 90%. • c) The cell density was adjusted with a complete medium. Subsequently, 80 µL of cell suspension was seeded into each well of a 96-well cell culture plate according to 3000 cells per well. • d) The cells in the 96-well plate were cultured at 37°C under 5% CO2. • e) 10× drug solution was prepared. […] The working concentration of the test compound was 5 µM. For the test group, 10 µL of serially diluted test compound was transferred into the corresponding experimental well of 96-well cell culture plate, and added with 10 µL of diluent containing an equal amount of DMSO (1%), and three replicate wells were set up for each drug concentration. Control wells were added with corresponding volumes of diluent. • f) The cells in the 96-well plate added with the drug were continuously cultured at 37°C under 5% CO2 for 72 hours. • g) CTG reagent (CellTiter-Glo® Luminescent Cell Viability Assay, purchased from Promega, Cat. No. G7571) was thawed, and the cell culture plate was equilibrated to room temperature for 30 minutes. • h) 100 µL of CTG solution was added into each well. • i) The plate was shaken on an orbital shaker for 5 minutes to induce cell lysis. • j) The cell culture plate was placed at room temperature for 20 minutes to stabilize luminescent signals. • k) Luminescence intensities were read, and data were collected. • l) The data were analyzed by using GraphPad Prism 7.0 software, non-linear S-curve regression was applied to fit the data for generating dose-response curves, and IC50 values were calculated accordingly. Specific experimental results were shown in Table 4. [formula] Table 4 Cell inhibitory activities of payload compounds in the present invention

[2] = tested on: HT29; details: Homo sapiens, HT-29; HT29, 72 hours
Protocol: as §1

[3] = tested on: A549; details: Homo sapiens; A549, 72 hours
Protocol: as §1

[4] = tested on: SK-OV-3; details: Homo sapiens; SK-OV-3, 72 hours
Protocol: as §1

[5] = tested on: HCT15; details: Homo sapiens, HCT-15; HCT15, 72 hours
Protocol: as §1

[6] = tested on: AsPC-1; details: Homo sapiens, ASPC1; AsPC-1, 72 hours
Protocol: as §1

[7] = tested on: COLO205; details: Homo sapiens, COLO 205; COLO205, 72 hours
Protocol: as §1

Row | Structure (SMILES) | IC50 [1] [nM] | IC50 [2] [nM] | IC50 [3] [nM] | IC50 [4] [nM] | IC50 [5] [nM] | IC50 [6] [nM] | IC50 [7] [nM]
1 | CC[C@@]1(O)C(=O)OCc2c1cc1n(c2=O)Cc2c-1nc1cc(F)c(F)cc1c2CO [C1-5, (4S)-4-ethyl-8,9-difluoro-4-hydroxy-11-(hydroxymethyl)-3,4,12,14-tetrahydro-1H-pyrano[3', 4':6,7]indolizino[1,2-b]quinolin-3,14-dione] | 196 | 144 | 21.1 | 79.5 | 142 | 1120 | 24.3
2 | CC[C@@]1(O)C(=O)OCc2c1cc1n(c2=O)Cc2c-1nc1cc(F)c(C)c3c1c2[C@@H](NC(=O)CO)CC3 [DXd] | 575 | 344 | 104 | 288 | 889 | 3100 | 95.5
3 | CCc1c2c(nc3ccc(O)cc13)-c1cc3c(c(=O)n1C2)COC(=O)[C@]3(O)CC [SN-38] | 1420 | 287 | 66.5 | 168 | 313 | > 10000 | 89.6
